Experimental data published in patent publication US12486298B2, “Fucosyltransferase specific inhibition using fucose mimetics” (THE FLORIDA INTERNATIONAL UNIVERSITY BOARD OF TRUSTEES, priority 2020, dated 2025).
“Also recorded” adds a separate entry of the source.

How the values were obtained:
[1] = target: T1, human fucose-binding DC-SIGN lectin (Homo sapiens, UniProt Q9NNX6); test: Recognition by DC-SIGN lectin
T1 sequence (Q9NNX6 1-404): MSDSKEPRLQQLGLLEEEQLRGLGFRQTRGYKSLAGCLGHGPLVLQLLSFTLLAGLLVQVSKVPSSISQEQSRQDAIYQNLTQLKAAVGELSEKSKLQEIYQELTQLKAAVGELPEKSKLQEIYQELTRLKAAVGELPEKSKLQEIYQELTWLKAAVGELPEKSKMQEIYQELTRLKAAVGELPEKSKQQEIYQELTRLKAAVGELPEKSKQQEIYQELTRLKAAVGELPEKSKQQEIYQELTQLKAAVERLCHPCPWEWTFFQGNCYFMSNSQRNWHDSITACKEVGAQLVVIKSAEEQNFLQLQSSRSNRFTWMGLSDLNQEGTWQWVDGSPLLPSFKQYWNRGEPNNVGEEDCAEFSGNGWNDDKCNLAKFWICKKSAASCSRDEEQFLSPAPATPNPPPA

[2] = target: T2, fucosyltransferase VII (FTVII) (Homo sapiens, UniProt Q11130); test: FTVII exofucosylation of RPMI-8402 cells, sLe^x by flow cytometry; format: cell-based
T2 sequence (Q11130 37-342 limits assumed): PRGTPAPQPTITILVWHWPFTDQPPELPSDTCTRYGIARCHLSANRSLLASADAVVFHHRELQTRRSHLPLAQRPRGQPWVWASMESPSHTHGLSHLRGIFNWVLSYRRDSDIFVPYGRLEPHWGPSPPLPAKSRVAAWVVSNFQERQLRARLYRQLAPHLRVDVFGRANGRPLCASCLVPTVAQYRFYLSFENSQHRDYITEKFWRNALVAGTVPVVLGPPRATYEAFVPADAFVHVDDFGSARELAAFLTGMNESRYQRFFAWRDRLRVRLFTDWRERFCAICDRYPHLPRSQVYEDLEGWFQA
Description: A Canto II (BD Biosciences) flow cytometer was utilized for flow cytometry and the data acquired was analyzed using FlowJo Software (Treestar). Cells were stained using antibodies specific to sLe^X (Alexa-Fluor 488 Mouse Anti-Human CD15s (BD Biosciences)), or Le^X (APC anti-human CD15 (SSEA-1) Antibody (BioLegend)).
Cells of the RPMI-8402 cell line and MSC cell line were treated with either 0.3 ug of fucosyltransferase VI (FTVI), 2.7 ug of fucosyltransferase VII (FTVII), 1.0 ug fucosyltransferase IX (FTIX) or buffer-only at 37° C. for 60 minutes. All reactions contained at 1×10^6 cells/30 ul in HBSS with 10 mM Hepes, 0.1% Human Serum Albumin, and 1.0 mM GDP fucose (GDP-Fuc) (Carbosynth) and the appropriate fucosytransferase. Then, mimetic 1 was added to each of the treatment groups in molar equivalents with respect to GDP-Fuc with each of the fucosytransferases. The treatment groups were as follows: 1:1 GDP-Fuc to mimetic 1 (i.e., 1.0 mM GDP-Fuc and 1.0 mM mimetic), 1:2 GDP-Fuc to mimetic 1 (i.e., 1.0 mM GDP-Fuc and 2.0 mM mimetic), or preincubated in presence of FT with a 2.0 mM solution of the mimetic 1 for 45 minutes followed by addition of a 1.0 mM solution of GDP-Fuc for 1 hour. Concentrations of the various FTs were utilized that would maximize the MFI to allow the detection of the efficacy of mimetic 1 to inhibit the various enzymes.
Exofucosylation is a technique whereby a pertinent FT together with GDP-Fuc is placed in a cell suspension to stereoselectively install fucose on pertinent acceptor cell surface glycan(s). For the case of α-1,3-FTs, this approach provides the ability to pinpoint the effect(s) of mimetic addition on creation of fucosylated glycans Le^x and sLe^x, while keeping the rest of the cell's biological functions and its viability intact. Specifically, this study focused on three α-1,3-FTs that can create sLe^x and Le^x determinants: FTVII, FTIX, and FTVI. To assess enzymatic activity, two cell types were utilized, the human lymphoblastic leukemia cell line RPMI-8402 and human mesenchymal stem cells (MSCs).
Mimetic 1 (FIG. 1) was tested as an inhibitor of FT-mediated exofucosylation on these cells and the extent of fucosylation was monitored using antibodies that detect the creation of the relevant fucosylated epitopes, i.e., sLe^x or Le^x. Cells were treated directly with reaction buffer containing the relevant FTs together with 1.0 mM GDP-Fuc and cells untreated with FTs (UT) were used as reference reaction negative control (FIGS. 2A, 2B, 2C, 3, 4A and 4B). […]
Moreover, a pre-incubation protocol was also analyzed, wherein the cell suspension was pre-treated with FTVII and a 2.0 mM solution of mimetic 1 followed by addition of 1.0 mM solution of GDP-Fuc (Pre).

CC1OC2Oc3ccc(CC(=O)O)cc3SC2C(O)C1O (centres unmarked) [mimetic 1]
recognition by DC-SIGN lectin [1]: not recognized | inhibition of FTVII-driven sLe^x expression ([2]; RPMI-8402 cells, 1.0 mM GDP-Fuc with 1.0 mM or 2.0 mM mimetic 1): able to inhibit FTVII-driven sLe^x expression | extent of inhibition, FTVII compared with FTVI ([2]; at 2.0 mM mimetic 1, 1.0 mM GDP-Fuc): slightly higher extent of inhibition on FTVII over FTVI | inhibition of FTVII sLe^x production after pre-incubation ([2]; pre-incubation of FTVII with 2.0 mM mimetic 1 for 45 minutes, then 1.0 mM GDP-Fuc for 1 hour): significant inhibition of sLe^x production; also recorded: inhibited more completely | concentration of highest inhibition against FTVII ([2]; titration of mimetic 1, 1.0 mM GDP-Fuc, RPMI-8402 cells, bell-shaped curve): 2.0 mM
